From article PMC9958325 (Nature Communications, 2023)
Several values for one entry are separate records, joined by “and”; a condition that tells them apart may be missing. Equal entries are not always repeated. Where two headings read alike, the source gives them in different places.

Legend:
[1] = tested on: SARS-CoV-2 TKYTS14631/ο BA.5; assay: microbe, parasite or virus in culture; format: cell-based
[2] = tested on: SARS-CoV-2 UT-NCD1757-1N/ο BA.2.75; assay: microbe, parasite or virus in culture; format: cell-based
[3] = tested on: SARS-CoV-2^WK-521; assay: microbe, parasite or virus in culture; format: cell-based; set-up: EC95, individual assays / EC95, Average: unit: µM
[4] = tested on: SARS-CoV-2^WK521 in HeLa-ACE2-TMPRSS2 cells; assay: Antiviral assay, HeLa-ACE2-TMPRSS2 cells, WK521; format: cell-based
[5] = tested on: HeLa-ACE2-TMPRSS2 cells; assay: Intracellular concentrations of compounds (LC/MS), HeLa-ACE2-TMPRSS2 cells; settings: 6 h; for Intracellular amount relative to nirmatrelvir: HeLa-ACE2-TMPRSS2 cells; for Intracellular amount, individual: listed as TKB-0248
[6] = tested on: SARS-CoV-2^WK521 in A549-ACE2-TMPRSS2 cells; assay: Antiviral assay, A549-ACE2-TMPRSS2 cells, WK521; format: cell-based
[7] = tested on: SARS-CoV-2 TKYS02037/ο BA.2; assay: microbe, parasite or virus in culture; format: cell-based
[8] = Pharmacokinetic study in PXB-mice (human liver-chimeric)
[9] = target: T1, human calpain (Homo sapiens, UniProt P07384); assay: Human calpain activity assay; format: biochemical; settings: for %inhibition against humanCalpain: triplicate
T1 sequence (P07384 2-714): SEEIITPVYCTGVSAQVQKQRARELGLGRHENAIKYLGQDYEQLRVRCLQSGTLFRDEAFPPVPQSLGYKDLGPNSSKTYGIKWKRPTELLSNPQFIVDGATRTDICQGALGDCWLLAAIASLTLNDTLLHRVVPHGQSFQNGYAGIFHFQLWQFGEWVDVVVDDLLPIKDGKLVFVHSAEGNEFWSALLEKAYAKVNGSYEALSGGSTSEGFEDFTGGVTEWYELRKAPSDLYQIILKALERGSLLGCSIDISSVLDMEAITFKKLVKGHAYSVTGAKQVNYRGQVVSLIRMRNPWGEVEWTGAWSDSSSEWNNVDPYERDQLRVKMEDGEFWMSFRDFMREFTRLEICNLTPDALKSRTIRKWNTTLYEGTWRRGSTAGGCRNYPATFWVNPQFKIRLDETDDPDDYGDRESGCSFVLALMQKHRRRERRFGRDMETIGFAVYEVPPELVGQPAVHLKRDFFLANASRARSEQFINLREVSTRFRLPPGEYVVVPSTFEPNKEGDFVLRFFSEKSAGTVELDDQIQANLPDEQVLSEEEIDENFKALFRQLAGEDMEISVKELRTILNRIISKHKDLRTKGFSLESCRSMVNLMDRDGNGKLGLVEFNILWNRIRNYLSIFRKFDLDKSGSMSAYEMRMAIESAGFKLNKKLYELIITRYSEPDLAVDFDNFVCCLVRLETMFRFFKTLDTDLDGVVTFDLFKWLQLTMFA
T1 sequence (P04632 1-268 partner): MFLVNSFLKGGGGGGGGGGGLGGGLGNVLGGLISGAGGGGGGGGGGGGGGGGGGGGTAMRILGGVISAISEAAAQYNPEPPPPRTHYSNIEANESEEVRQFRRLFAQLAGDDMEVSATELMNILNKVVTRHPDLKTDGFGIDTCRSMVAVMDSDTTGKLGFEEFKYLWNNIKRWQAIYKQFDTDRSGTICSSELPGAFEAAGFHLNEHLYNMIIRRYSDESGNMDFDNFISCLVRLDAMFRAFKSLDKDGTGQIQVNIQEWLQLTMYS

[10] = tested on: SARS-CoV-2 TKYX00012/ο BA.1; assay: microbe, parasite or virus in culture; format: cell-based

In the case of `CC(C)(C)[C@H](NC(=O)C(F)(F)F)C(=O)N1C[C@H]2[C@@H]([C@H]1C(=S)N[C@@H](C[C@@H]1CCNC1=O)C(=O)c1nc3c(F)cccc3s1)C2(C)C` [TKB248], the EC50 ([1]; read-out: EC50 against TKYTS14631/ο BA.5) is reported as 70 ± 8 nM, the EC50 ([1]; read-out: EC50 ο BA5, Average) is reported as 70.7 nM and the EC50 ([1]; read-out: EC50 ο BA5, individual assays) is reported as 67.1 nM and 80 nM and 65 nM. The EC50 ([2]; read-out: EC50 against UT-NCD1757-1N/ο BA.2.75) was 430 ± 91 nM, the EC50 ([2]; read-out: EC50 ο BA2.75, individual assays) was 430 nM and 320 nM and 250 nM and the “EC95, Average” value [3] was 0.8712. The “EC95, individual assays” value [3] was 0.89 and 0.81 and 0.885 and 0.9, the “SARS-CoV2 RNA VeroE6 cell-based assay EC95” value [3] was 870 ± 40 nM and the EC50 ([3]; read-out: EC50, Average) was 225 nM. For the same compound, the EC50 ([3]; read-out: EC50, VeroE6 + 2 µM CP100356) was 30 ± 30 nM, the EC50 ([3]; read-out: EC50, VeroE6 with CP100356, Average) was 35 nM and the EC50 ([3]; read-out: EC50, VeroE6 with CP100356, individual assays) was 23 nM and 65 nM and 17 nM. The EC50 ([3]; read-out: EC50, individual assays) was 310 nM and 230 nM and 240 nM and 120 nM, the EC50 ([3]; read-out: SARS-CoV2 RNA VeroE6 cell-based assay EC50) was 220 ± 80 nM and the EC50 ([4]; SARS-CoV-2^WK521, read-out: EC50, HeLa-ACE2-TMPRSS2) was 160 ± 75 nM. The EC50 ([4]; source data, listed as TKB0248, read-out: EC50, HeLa-AEC2-TMPRSS2, individual assays) was 230 nM and 80 nM and 170 nM, the “Intracellular amount relative to nirmatrelvir” value ([5]; 50 µM) was 318 fold and the “Intracellular amount relative to nirmatrelvir” value ([5]; 100 µM) was 165 fold. The “Intracellular amount, avg” value ([5]; Hela ACE2 TMPRSS2, 10uM) was 295.717 pmol(total), the “Intracellular amount, individual” value ([5]; Hela ACE2 TMPRSS2, 10uM) was 295.283 pmol(total) and 296.151 pmol(total) and the “Intracellular amount, avg” value ([5]; Hela ACE2 TMPRSS2, 50uM) was 570.720 pmol(total). For the same compound, the “Intracellular amount, individual” value ([5]; Hela ACE2 TMPRSS2, 50uM) was 643.805 pmol(total) and 497.635 pmol(total), the “Intracellular amount, avg” value ([5]; Hela ACE2 TMPRSS2, 100uM) was 630.843 pmol(total) and the “Intracellular amount, individual” value ([5]; Hela ACE2 TMPRSS2, 100uM) was 605.189 pmol(total) and 656.496 pmol(total). For the same compound, the EC50 ([6]; SARS-CoV-2^WK521, read-out: EC50, A549-ACE2-TMPRSS2) was 199 ± 5 nM, the EC50 ([6]; source data, listed as TKB0248, read-out: EC50, A549-AEC2-TMPRSS2, individual assays) was 200 nM and 204 nM and 193 nM and the EC50 ([6]; source data, read-out: EC50, A549-AEC2-TMPRSS2, Average) was 199 nM. For the same compound, the EC50 ([7]; read-out: EC50 against TKYVS2037/ο BA.2) was 210 ± 87 nM, the EC50 ([7]; read-out: EC50 ο BA2, individual assays) was 150 nM and the Cmax ([8]; N = 3 male PXB-mouse, 10 mg/kg p.o.) was 1,925¶ ng/mL. The T1/2 ([8]; N = 3 male PXB-mouse, 10 mg/kg, oral (p.o.) value for TKB245) was 4.34¶ h, the Plasma concentration ([8]; PXB-mice, i.v. 10 mg/kg, 10 min, individual mice, listed as TKB0248, 10 mg/kg) was 8186.6 ng/mL and 8038.7 ng/mL and 9327.7 ng/mL and the Plasma concentration ([8]; PXB-mice, i.v. 10 mg/kg, 0.17 hr, individual mice, listed as TKB0248, 10 mg/kg) was 8190 ng/mL and 8040 ng/mL and 9330 ng/mL. For the same compound, the Plasma concentration ([8]; PXB-mice, i.v. 10 mg/kg, 60 min, individual mice, listed as TKB0248, 10 mg/kg) was 3193.2 ng/mL and 4290.6 ng/mL and 4927 ng/mL, the Plasma concentration ([8]; PXB-mice, i.v. 10 mg/kg, 1 hr, individual mice, listed as TKB0248, 10 mg/kg) was 3190 ng/mL and 4290 ng/mL and 4930 ng/mL and the Plasma concentration ([8]; PXB-mice, i.v. 10 mg/kg, 240 min, individual mice, listed as TKB0248, 10 mg/kg) was 955 ng/mL and 1072.2 ng/mL and 1659.6 ng/mL. For the same compound, the Plasma concentration ([8]; PXB-mice, i.v. 10 mg/kg, 4 hr, individual mice, listed as TKB0248, 10 mg/kg) was 960 ng/mL and 1070 ng/mL and 1660 ng/mL, the Plasma concentration ([8]; PXB-mice, i.v. 10 mg/kg, 480 min, individual mice, listed as TKB0248, 10 mg/kg) was 290 ng/mL and 301.5 ng/mL and 497.6 ng/mL and the Plasma concentration ([8]; PXB-mice, i.v. 10 mg/kg, 8 hr, individual mice, listed as TKB0248, 10 mg/kg) was 290 ng/mL and 300 ng/mL and 500 ng/mL. The Plasma concentration ([8]; PXB-mice, i.v. 10 mg/kg, 1440 min, individual mice, listed as TKB0248, 10 mg/kg) was 13.9 ng/mL and 20.8 ng/mL and 20 ng/mL, the Plasma concentration ([8]; PXB-mice, i.v. 10 mg/kg, 24 hr, individual mice, listed as TKB0248, 10 mg/kg) was 0.01 µg/ml and 0.02 µg/ml (2×) and the Plasma concentration ([8]; PXB-mice, p.o. 10 mg/kg, 10 min, individual mice, listed as TKB0248, 10 mg/kg) was 803.8 ng/mL and 639.6 ng/mL and 800.1 ng/mL. The Plasma concentration ([8]; PXB-mice, p.o. 10 mg/kg, 0.17 hr, individual mice, listed as TKB0248, 10 mg/kg) was 0.8 µg/ml (2×) and 0.64 µg/ml, the Plasma concentration ([8]; PXB-mice, p.o. 10 mg/kg, 60 min, individual mice, listed as TKB0248, 10 mg/kg) was 2400.6 ng/mL and 1592.1 ng/mL and 1781.9 ng/mL and the Plasma concentration ([8]; PXB-mice, p.o. 10 mg/kg, 1 hr, individual mice, listed as TKB0248, 10 mg/kg) was 2400 ng/mL and 1590 ng/mL and 1780 ng/mL. The Plasma concentration ([8]; PXB-mice, p.o. 10 mg/kg, 240 min, individual mice, listed as TKB0248, 10 mg/kg) was 1886.1 ng/mL and 944.6 ng/mL and 788.3 ng/mL, the Plasma concentration ([8]; PXB-mice, p.o. 10 mg/kg, 4 hr, individual mice, listed as TKB0248, 10 mg/kg) was 1890 ng/mL and 940 ng/mL and 790 ng/mL and the Plasma concentration ([8]; PXB-mice, p.o. 10 mg/kg, 480 min, individual mice, listed as TKB0248, 10 mg/kg) was 645.5 ng/mL and 263.6 ng/mL and 711 ng/mL. For the same compound, the Plasma concentration ([8]; PXB-mice, p.o. 10 mg/kg, 8 hr, individual mice, listed as TKB0248, 10 mg/kg) was 650 ng/mL and 260 ng/mL and 710 ng/mL, the Plasma concentration ([8]; PXB-mice, p.o. 10 mg/kg, 1440 min, individual mice, listed as TKB0248, 10 mg/kg) was 66.2 ng/mL and 80.3 ng/mL and 54.4 ng/mL and the Plasma concentration ([8]; PXB-mice, p.o. 10 mg/kg, 24 hr, individual mice, listed as TKB0248, 10 mg/kg) was 70 ng/mL and 80 ng/mL and 50 ng/mL. The “Oral F” value ([8]; male PXB-mouse 10 mg/kg i.v. and p.o., dose-normalized AUC ratio, 10 mg/kg) was 72% and 72¶ %, the Plasma concentration ([8]; p.o., 10 min, individual animals (3 per time point), LC/MS/MS, listed as TKB0248) was 803.78 ng/mL and 639.58 ng/mL and 800.12 ng/mL and the Plasma concentration ([8]; p.o., 60 min, individual animals (3 per time point), LC/MS/MS, listed as TKB0248) was 2400.63 ng/mL and 1592.07 ng/mL and 1781.87 ng/mL. For the same compound, the Plasma concentration ([8]; p.o., 240 min, individual animals (3 per time point), LC/MS/MS, listed as TKB0248) was 1886.06 ng/mL and 944.61 ng/mL and 788.27 ng/mL, the Plasma concentration ([8]; p.o., 480 min, individual animals (3 per time point), LC/MS/MS, listed as TKB0248) was 645.53 ng/mL and 263.61 ng/mL and 711.03 ng/mL and the Plasma concentration ([8]; p.o., 1440 min, individual animals (3 per time point), LC/MS/MS, listed as TKB0248) was 66.21 ng/mL and 80.35 ng/mL and 54.38 ng/mL. The “Effect on human calpain (in words)” value [9] was “neither of human cysteine enzymes, cathepsin L and calpain, were significantly affected”, the “%inhibition against humanCalpain” value ([9]; 0.000128 µM) was 0% and the “%inhibition against humanCalpain” value ([9]; 0.00064 µM) was 0%. The “%inhibition against humanCalpain” value ([9]; 0.0032 µM) was 0%, the “%inhibition against humanCalpain” value ([9]; 0.08 µM) was 0% and the “%inhibition against humanCalpain” value ([9]; 0.4 µM) was 0%. The “%inhibition against humanCalpain” value ([9]; 2 µM) was 1%, the IC50 ([9]; 60 minute incubation, mean ± 1 S.D., n=3, read-out: IC50, human calpains) was over 2000 nM and the EC50 ([10]; read-out: EC50 against KTKYX00012/ο BA.1) was 282 ± 43 nM. For the same compound, the EC50 ([10]; read-out: EC50 ο BA1, Average) was 282 nM and the EC50 ([10]; read-out: EC50 ο BA1, individual assays) was 290 nM and 235 nM and 320 nM.
